Source: patent US4714774A, “Benzoic acid derivatives and their production” (Takeda Chemical Industries, Ltd., priority 1984, dated 1987)

Assays:
[1] = tested on: bronchoconstriction in guinea pigs due to an intravenous administration of synthetic leukotriene D4 (LTD4); test: Inhibition of LTD4-induced bronchoconstriction in guinea pigs, oral dosing (Konzett-Rossler method); format: in vivo, guinea pig (Hartley strain); settings: Cavia porcellus, 1 h, guinea pig, p.o. one hour before LTD4 10 μg/kg i.v., inhibition of overflow volume 30 seconds after LTD4, read-out: ID50 (p.o.) (50% inhibitory dose)
Protocol: Guinea pigs of Hartley strain, both male and female, with body weights about 400 g were assigned to groups of 6 to 10 individuals, and the bronchoconstriction due to LTD4 was measured according to the method of Konzett-Rossler [Konzett, H. and Rossler, R.: Naunyn-Schmiedebergs Archiv fur Experimentelle Pathologie und Pharmakologie 195, 71-74 (1940)]. Each guinea pig was fixed in supine position under urethane anesthesia (1.5 g/kg, intraperitoneal) and the trachea was incised and connected to an artificial respiration apparatus, Rodent Respirator Model 680 [Harvard Apparatus Company, U.S.A.] via a cannula. The branch tube of this tracheal cannula was connected to Bronchospasm Transducer Model 7020 [Ugobasil Biological Researach Apparatus, Italy]. Under the conditions of 4 to 7 ml of air per stroke, 70 strokes per minute and a lung loading pressure of 10 cmH2 O, the volume of overflowing air was recorded on Rectigraph-8S (San-ei Sokki Co. Ltd., Japan) via a transducer. After administration of gallamine.triethiodide (1 mg/kg, i.v.), a solution of LTD4 in physiological saline (10 μg/kg) was intravenously administered and the bronchoconstriction elicited thereby was recorded for 15 minutes. […]
*^1 ID50 (50% inhibitory dose): Each value was calculated from […]

[2] = tested on: mice; test: Acute oral toxicity in mice; format: in vivo, mouse (Jcl:ICR strain); settings: male mice
Protocol: Five 5-week-old male mice per group, of Jcl:ICR strain, weighing about 30 g each, were used. Compound (I')-1 was suspended in a 5% solution of gum arabic and administered orally at the level of 0.2 ml per 10 grams body weight.

## CCCc1c(OCCCOc2ccc(C(=O)O)cc2Br)ccc(C(C)=O)c1OC(C)=O [Compound (I')-1, 4-[3-(3-acetoxy-4-acetyl-2-propylphenoxy)propoxy]-3-bromobenzoic acid]
[1]
  ED50: 47 µmol/kg
[2]; oral 500 mg/kg, autopsy after 7 days
  autopsy findings: did not reveal any abnormalities
[2]; single oral dose 500 mg/kg
  symptoms attributable to the compound: no symptoms that could be attributable to compound (I')-1
